The values that follow come from ChEMBL document CHEMBL1909046, “DrugMatrix in vitro pharmacology data”.

As usually defined, the IC50 is the concentration at which inhibition is half-maximal.

Series [1] has as its target T1, Alpha-1B adrenergic receptor (Rattus norvegicus, UniProt P15823).
T1 sequence (P15823 whole entry): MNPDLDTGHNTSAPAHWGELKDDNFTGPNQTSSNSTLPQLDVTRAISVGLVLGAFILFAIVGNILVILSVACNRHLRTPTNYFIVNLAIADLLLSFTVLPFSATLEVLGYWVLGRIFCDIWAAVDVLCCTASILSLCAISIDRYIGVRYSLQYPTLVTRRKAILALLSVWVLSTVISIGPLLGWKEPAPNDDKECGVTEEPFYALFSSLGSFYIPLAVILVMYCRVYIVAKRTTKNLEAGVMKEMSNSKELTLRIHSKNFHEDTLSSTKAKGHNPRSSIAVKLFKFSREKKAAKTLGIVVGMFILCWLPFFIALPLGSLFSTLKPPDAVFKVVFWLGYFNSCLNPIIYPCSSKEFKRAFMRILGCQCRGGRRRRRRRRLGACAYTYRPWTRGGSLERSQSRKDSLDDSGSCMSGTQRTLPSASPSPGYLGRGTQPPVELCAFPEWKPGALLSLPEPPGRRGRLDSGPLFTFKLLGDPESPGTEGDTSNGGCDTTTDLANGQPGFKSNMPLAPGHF
Description: DRUGMATRIX: Alpha-1B adrenergic receptor radioligand binding (ligand: prazosin). The series is classed as cell membranes, Wistar, Liver, Membrane. As to conditions: Not Active = under 50% inhibition at 10 µM.

Series [2] concerns the target Melanocortin receptor 3 (Homo sapiens, UniProt P41968). The series is classed as cell membranes, HEK293, Membrane. As to conditions: hek293. Further: in other assays of this panel Not Active means under 50% inhibition at 10 µM.
Series [3] addresses Mitogen-activated protein kinase 3 (Homo sapiens, UniProt P27361). Description: DRUGMATRIX: Protein Serine/Threonine Kinase, ERK1 enzyme inhibition (substrate: Myelin Basic Protein). More on the design: species or system Escherichia coli. Particulars: Not Active = under 50% inhibition at 10 µM.
Series [4] addresses T2, Thromboxane-A synthase (Homo sapiens, UniProt P24557).
T2 sequence (P24557 whole entry): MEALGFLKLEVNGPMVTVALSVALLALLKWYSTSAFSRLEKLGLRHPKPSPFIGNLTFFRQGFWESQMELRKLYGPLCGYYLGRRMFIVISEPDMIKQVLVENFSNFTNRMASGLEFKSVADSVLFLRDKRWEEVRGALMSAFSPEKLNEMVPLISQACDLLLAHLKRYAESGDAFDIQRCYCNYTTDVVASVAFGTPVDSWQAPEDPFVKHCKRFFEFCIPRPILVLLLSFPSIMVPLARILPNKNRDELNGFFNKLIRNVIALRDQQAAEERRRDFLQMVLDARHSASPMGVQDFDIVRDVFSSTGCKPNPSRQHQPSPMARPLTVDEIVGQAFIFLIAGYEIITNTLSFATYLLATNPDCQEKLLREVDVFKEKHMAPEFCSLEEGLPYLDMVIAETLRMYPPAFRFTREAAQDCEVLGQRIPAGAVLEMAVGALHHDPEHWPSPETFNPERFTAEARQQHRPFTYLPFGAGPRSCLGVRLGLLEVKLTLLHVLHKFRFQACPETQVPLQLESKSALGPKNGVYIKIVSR
The series is described as follows: biochemical. It is filed as tissue-based, Platelet.

Series [5] in a line: DRUGMATRIX: GABAA, Flunitrazepam, Central radioligand binding (ligand: [3H] Flunitrazepam). The series is classed as cell membranes, Rattus norvegicus, Wistar, Brain, Membrane. Particulars: Not Active = under 50% inhibition at 10 µM.
For series [6], the target named is 5-hydroxytryptamine receptor 6 (Homo sapiens, UniProt P50406). The series is classed as cell membranes, HeLa, Membrane. Particulars: hela. Further: in other assays of this panel Not Active means under 50% inhibition at 10 µM.
Sequence of 5-hydroxytryptamine receptor 6 (P50406 whole entry): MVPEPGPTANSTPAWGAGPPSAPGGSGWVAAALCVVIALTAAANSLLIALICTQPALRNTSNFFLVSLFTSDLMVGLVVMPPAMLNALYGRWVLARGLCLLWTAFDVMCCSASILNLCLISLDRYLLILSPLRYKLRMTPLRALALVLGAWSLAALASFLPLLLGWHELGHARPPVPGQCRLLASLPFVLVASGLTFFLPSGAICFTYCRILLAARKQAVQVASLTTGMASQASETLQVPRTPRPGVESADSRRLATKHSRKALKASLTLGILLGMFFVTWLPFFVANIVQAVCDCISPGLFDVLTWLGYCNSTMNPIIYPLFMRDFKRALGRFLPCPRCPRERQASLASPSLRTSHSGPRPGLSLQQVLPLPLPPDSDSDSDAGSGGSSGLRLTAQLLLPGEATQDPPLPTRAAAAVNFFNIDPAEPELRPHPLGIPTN
The target in series [7] is Cytochrome P450 2E1 (Homo sapiens, UniProt P05181). Particulars: bti-tn-5b1-4. Further: in other assays of this panel Not Active means under 50% inhibition at 10 µM.
Sequence of Cytochrome P450 2E1 (P05181 whole entry): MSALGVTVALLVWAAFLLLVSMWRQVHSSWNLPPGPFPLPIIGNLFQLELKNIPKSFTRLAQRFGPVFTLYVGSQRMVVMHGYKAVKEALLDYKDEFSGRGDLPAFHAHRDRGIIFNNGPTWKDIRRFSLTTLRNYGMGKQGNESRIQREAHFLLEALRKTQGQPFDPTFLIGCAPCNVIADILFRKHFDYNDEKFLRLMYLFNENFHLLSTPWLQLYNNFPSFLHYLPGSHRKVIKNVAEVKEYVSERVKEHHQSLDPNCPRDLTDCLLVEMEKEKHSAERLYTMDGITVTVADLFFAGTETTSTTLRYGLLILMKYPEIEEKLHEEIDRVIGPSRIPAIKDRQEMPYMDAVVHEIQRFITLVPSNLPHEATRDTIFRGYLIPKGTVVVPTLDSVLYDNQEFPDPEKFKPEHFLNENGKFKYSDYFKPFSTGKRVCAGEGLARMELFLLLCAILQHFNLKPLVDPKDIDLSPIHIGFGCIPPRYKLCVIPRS

Sequence of Melanocortin receptor 3 (P41968 whole entry): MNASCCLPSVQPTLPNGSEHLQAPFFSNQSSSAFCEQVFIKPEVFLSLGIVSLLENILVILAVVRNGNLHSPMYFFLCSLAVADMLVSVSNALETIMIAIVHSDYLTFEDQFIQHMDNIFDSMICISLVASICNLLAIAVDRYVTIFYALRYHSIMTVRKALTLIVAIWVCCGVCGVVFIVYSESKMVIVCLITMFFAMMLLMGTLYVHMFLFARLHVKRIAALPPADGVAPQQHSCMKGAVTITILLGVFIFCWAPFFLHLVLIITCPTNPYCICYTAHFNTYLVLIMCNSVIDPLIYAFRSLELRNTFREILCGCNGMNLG
Sequence of Mitogen-activated protein kinase 3 (P27361 whole entry): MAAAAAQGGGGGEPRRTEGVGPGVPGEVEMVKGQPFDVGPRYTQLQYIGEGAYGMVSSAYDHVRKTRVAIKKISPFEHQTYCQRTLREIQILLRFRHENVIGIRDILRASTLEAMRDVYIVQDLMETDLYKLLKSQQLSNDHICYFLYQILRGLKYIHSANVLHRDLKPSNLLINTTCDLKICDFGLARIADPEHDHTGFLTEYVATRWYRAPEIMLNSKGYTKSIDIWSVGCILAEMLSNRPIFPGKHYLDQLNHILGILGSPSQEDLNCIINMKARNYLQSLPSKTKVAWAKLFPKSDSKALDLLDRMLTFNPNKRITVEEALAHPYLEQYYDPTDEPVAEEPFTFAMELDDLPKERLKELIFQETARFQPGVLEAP

Consider `CC(C)CN(C[C@@H](O)[C@H](Cc1ccccc1)NC(=O)O[C@H]1CCOC1)S(=O)(=O)c1ccc(N)cc1`, for which the IC50 entry was “Not Active” in series [1]; “Not Active” in series [2]; “Not Active” in series [3]; 6.73 µM in series [4] (read-out: IC50); “Not Active” in series [5]; “Not Active” in series [6]. The IC50 result in series [7] is given as “Not Active”. Moreover, the Ki entry in series [5] and in series [7] was “Not Active” throughout.
Consider `NC(=O)N1c2ccccc2CCc2ccccc21`, for which the IC50 entry in series [1], in series [2], in series [3], in series [4] (platelet), in series [5] and in series [6] was “Not Active” throughout. Moreover, in series [7], the IC50 entry is listed as “Not Active”. In addition, the Ki entry in series [5] and in series [7] was “Not Active” in each case.
`CN(C)c1nc(N(C)C)nc(N(C)C)n1` [ALTRETAMINE]: the IC50 entry in series [1], in series [2], in series [3], in series [4] (platelet), in series [5] and in series [6] was “Not Active” each time. Further, the Ki result in series [5] is reported as “Not Active”.
In the case of `Nc1c(Br)cc(Br)cc1CN[C@H]1CC[C@H](O)CC1` [AMBROXOL], the IC50 entry in series [1], in series [2], in series [3], in series [4] (platelet), in series [5] and in series [6] was “Not Active” each time. Besides, the Ki result in series [5] is “Not Active”.
Turning to `CCOC(=O)C1=C(COCCN)NC(C)=C(C(=O)OC)C1c1ccccc1Cl` (stereo not drawn) [AMLODIPINE], the IC50 entry in series [1], in series [2], in series [3], in series [4] (platelet), in series [5] and in series [7] was “Not Active” in each case. For the same compound, the Ki result in series [5] and in series [7] was “Not Active” each time.
As to `CN(C)CCCN1c2ccccc2Sc2ccc(Cl)cc21` [CHLORPROMAZINE], the IC50 entry in series [3], in series [4] (platelet), in series [5] and in series [7] was “Not Active” in each case. Also, the Ki result in series [5] and in series [7] was “Not Active” throughout.
Regarding `Clc1cccc(Cl)c1NC1=NCCN1` [CLONIDINE], the IC50 result in series [2], in series [3], in series [4] (platelet), in series [5], in series [6] and in series [7] was “Not Active” each time. Also, the Ki result in series [5] and in series [7] was “Not Active” in each case.
As for `C[C@]12CC[C@@H]3c4ccc(O)cc4CC[C@H]3[C@@H]1CCC2=O` [ESTRONE], the IC50 entry in series [1], in series [2], in series [3], in series [4] (platelet), in series [5] and in series [6] was “Not Active” in each case. Also, the Ki entry in series [5] is reported as “Not Active”.
Consider `N=C(N)NCCN1CCCCCCC1` [GUANETHIDINE], for which the IC50 result in series [1], in series [2], in series [3], in series [4] (platelet), in series [5] and in series [6] was “Not Active” in each case. In addition, the Ki entry in series [5] is listed as “Not Active”.
With `CC1(C)S[C@@H]2[C@H](NC(=O)Cc3ccccc3)C(=O)N2[C@H]1C(=O)O` [PENICILLIN G], the IC50 result in series [1], in series [2], in series [3], in series [4] (platelet), in series [5] and in series [6] was “Not Active” throughout. The Ki entry in series [5] is given as “Not Active”.
With `Cc1ccc(N(CC2=NCCN2)c2cccc(O)c2)cc1` [PHENTOLAMINE], the IC50 entry in series [2], in series [3], in series [4] (platelet), in series [5], in series [6] and in series [7] was “Not Active” throughout. The Ki entry in series [5] and in series [7] was “Not Active” throughout.
